This is an account of results in patent US20260216105A1, “CAPSAICIN EMULSION COMPOSITION, PREPARATION METHOD THEREFOR, AND USE THEREOF” (priority 2022, published 2026).

≈ marks a conversion by molar mass, not a printed value. Where only a bound is given, the exact number is not on record here.

What all share (format): physicochemical
Data set [1] is described as follows: Physical phenomena of active ingredient / water-soluble solvent / water ternary mixtures. As to conditions: for formation of a liquid-liquid phase separation system with ethanol and water: bupivacaine:EtOH 1:2, ropivacaine:EtOH 1:10; for mass ratio of water:EtOH (x:1) forming a liquid-liquid phase separation state: both at 0 h and 24 h after standing. As to the method:
A stock solution was prepared with a mass ratio of CAP:EtOH=1:5. Then, 0.5 g samples of the stock solution were taken and respectively added into PE tubes, and different amounts of water (based on mass ratio of water to CAP) were added according to Table 6. […]
According to the protocols in Examples 4.1-4.3, the physical states of mixtures containing CAP and EtOH (at mass ratios of 1:1, 1:5, and 1:10) and different proportions of water (based on mass ratio of water to CAP) were studied at 0 h and 24 h after standing. […]
A stock solution was prepared with a mass ratio of bupivacaine:EtOH=1:2. Then, 0.5 g samples of the stock solution were taken and respectively added into PE tubes, and different amounts of water (based on ratio of water to bupivacaine) were added according to Table 14. The ternary mixtures were shaken and observed at 0 h and 24 h after standing. […]

Experiment in data set [2]: as above
Another data set can be described thus: physchem. As to conditions: for solubility at 24 h: 25 °C, thermodynamic from solid. As to the method: About 3 g of each solvent was weighed according to Table 3, and an excess amount of capsaicin was added. The mixture was placed into a constant-temperature oscillator for oscillation for 24 h (25° C., 200 rpm), and then centrifuged at 10000 rpm for 30 min. The supernatant was taken to measure the capsaicin content. The solubility of CAP in different solvents (different pH buffers, commonly used oil phases, and water-soluble organic solvents) was measured, with the results shown in Table 3: […]

In the case of `CCCN1CCCC[C@H]1C(=O)Nc1c(C)cccc1C` [ropivacaine], in data set [1], the “formation of a liquid-liquid phase separation system with ethanol and water” value is listed as “failed to form a liquid-liquid phase separation system”.
Consider `COc1cc(CNC(=O)CCCC/C=C/C(C)C)ccc1O` [CAP, capsaicin], for which the results for the “mass ratio of water:EtOH (x:1) forming a liquid-liquid phase separation state” value in data set [1] (CAP:EtOH 1:1), in data set [1] (CAP:EtOH 1:5) and in data set [1] (CAP:EtOH 1:10) were 0.65-2, 1-2.2 and 1.4-2.5, respectively. Besides, the results for the “formation of a liquid-liquid phase separation system with PEG200 and water” value in data set [1] (CAP:PEG200 1:3) and in data set [1] (CAP:PEG200 1:5 (increased mass of PEG200)) were “could not form a liquid-liquid phase separation system” and “failed to enable the formation of a liquid-liquid phase separation system”, respectively. Besides, the “formation of a liquid-liquid phase separation system with propylene glycol and water” value in data set [1] (CAP:propylene glycol 1:5) was “failed to form a liquid-liquid phase separation system”. In data set [2] (CAP:DGME 1:1), the “mass ratio of water:DGME (x:1) forming a liquid-liquid phase separation system” value was 1-2. The “mass ratio of water:DMI (x:1) forming a liquid-liquid phase separation system” value in data set [2] (CAP:DMI 1:3) is 0.3-2. Also, the “mass ratio of water:IPA (x:1) forming a liquid-liquid phase separation system” value in data set [2] (CAP:IPA 1:1) was 0.5-2. For the same compound, the solubility at 24 h was 36000 µg/mL (≈ 118 mM) in “physchem” (oil or lipid, Castor oil, shaken at 25° C. for 24 h); 45000 µg/mL (≈ 147 mM) in “physchem” (oil or lipid, GDO, shaken at 25° C. for 24 h); 14000 µg/mL (≈ 45.8 mM) in “physchem” (oil or lipid, MCT, shaken at 25° C. for 24 h); 502000 µg/mL (≈ 1640 mM) in “physchem” (organic solvent or mixture, DGME, shaken at 25° C. for 24 h); greater than 500000 µg/mL in the data set “physchem” (organic solvent or mixture, DMI, shaken at 25° C. for 24 h); greater than 500000 µg/mL in the data set “physchem” (organic solvent or mixture, Ethanol, shaken at 25° C. for 24 h). The solubility at 24 h in the data set “physchem” (organic solvent or mixture, Isopropanol, shaken at 25° C. for 24 h) is greater than 500000 µg/mL; in “physchem” (organic solvent or mixture, PEG200, shaken at 25° C. for 24 h), 367000 µg/mL (≈ 1200 mM); in “physchem” (organic solvent or mixture, Propylene glycol, shaken at 25° C. for 24 h) it was 290000 µg/mL (≈ 950 mM); in “physchem” (organic solvent or mixture, in some water-soluble organic solvents) it was greater than 250000 µg/mL; in the data set “physchem” (pH 1, simulated gastric fluid, pH 1.0 hydrochloric acid medium, shaken at 25° C. for 24 h), 45 µg/mL (≈ 0.147 mM); in “physchem” (pH 2, simulated gastric fluid, pH 2.0 hydrochloric acid medium, shaken at 25° C. for 24 h), 52 µg/mL (≈ 0.17 mM). The solubility at 24 h amounted to 44 µg/mL (≈ 0.144 mM) in “physchem” (pH 3, aqueous buffer, pH 3.0 phosphate medium, shaken at 25° C. for 24 h); 53 µg/mL (≈ 0.174 mM) in “physchem” (pH 4, aqueous buffer, pH 4.0 acetate medium, shaken at 25° C. for 24 h); 52 µg/mL (≈ 0.17 mM) in “physchem” (pH 5, aqueous buffer, pH 5.0 acetate medium, shaken at 25° C. for 24 h); 46 µg/mL (≈ 0.151 mM) in “physchem” (pH 6, aqueous buffer, pH 6.0 phosphate medium, shaken at 25° C. for 24 h); 45 µg/mL (≈ 0.147 mM) in “physchem” (pH 7, aqueous buffer, pH 7.0 phosphate medium, shaken at 25° C. for 24 h); 42 µg/mL (≈ 0.138 mM) in “physchem” (pH 8, aqueous buffer, pH 8.0 phosphate medium, shaken at 25° C. for 24 h). Also, the solubility at 24 h is 53 µg/mL (≈ 0.174 mM) in “physchem” (pH 9, aqueous buffer, pH 9.0 carbonate medium, shaken at 25° C. for 24 h) and 102 µg/mL (≈ 0.334 mM) in “physchem” (pH 10, aqueous buffer, pH 10.0 carbonate medium, shaken at 25° C. for 24 h). Further, the Solubility in the data set “physchem” (Corn oil, shaken at 25° C. for 24 h) turned out to be 5000 µg/mL (≈ 16.4 mM); in the data set “physchem” (Peanut oil, shaken at 25° C. for 24 h), 5000 µg/mL (≈ 16.4 mM); in “physchem” (Rapeseed oil, shaken at 25° C. for 24 h) it was 5000 µg/mL (≈ 16.4 mM).
As to `CCCCN1CCCCC1C(=O)Nc1c(C)cccc1C` (stereo not shown) [bupivacaine], in data set [1], the “formation of a liquid-liquid phase separation system with ethanol and water” value is on record as “failed to form a liquid-liquid phase separation system”.

One may read the solubility as the dissolved amount per volume that the medium holds. One may read the Solubility as the dissolved amount per volume that the medium holds. Lower therefore signals a poorly soluble substance.
